Measured values from PubChem BioAssay (NCI).
Where “and” joins values, the source holds several entries; their conditions need not be identical. Equal values may be shown once.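 How tested: cells in 96-well plates exposed to compound for 48 hours at five concentrations. The concentration for 50% growth inhibition is given as GI50. TGI denotes the concentration required for complete inhibition of growth.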

What was measured:
Assay in all cases: growth of human tumour cells (NCI), 48 h
786-0 renal = test system: 786-0 renal
A498 renal = test system: A498 renal
A549 NSCLC = test system: A549 NSCLC
ACHN renal = test system: ACHN renal
BT-549 breast = test system: BT-549 breast
CAKI-1 renal = test system: CAKI-1 renal
CCRF-CEM leukemia = test system: CCRF-CEM leukemia
COLO 205 colon = test system: COLO 205 colon
DLD-1 colon = test system: DLD-1 colon
DMS 114 small cell lung = test system: DMS 114 small cell lung
DMS 273 small cell lung = test system: DMS 273 small cell lung
DU-145 prostate = test system: DU-145 prostate
EKVX NSCLC = test system: EKVX NSCLC
HCC-2998 colon = test system: HCC-2998 colon
HCT-116 colon = test system: HCT-116 colon
HCT-15 colon = test system: HCT-15 colon
HL-60(TB) leukemia = test system: HL-60(TB) leukemia
HOP-18 NSCLC = test system: HOP-18 NSCLC
HOP-62 NSCLC = test system: HOP-62 NSCLC
HOP-92 NSCLC = test system: HOP-92 NSCLC
HS 578T breast = test system: HS 578T breast
HT29 colon = test system: HT29 colon
IGROV1 ovarian = test system: IGROV1 ovarian
K-562 leukemia = test system: K-562 leukemia
KM12 colon = test system: KM12 colon
KM20L2 colon = test system: KM20L2 colon
LOX IMVI melanoma = test system: LOX IMVI melanoma
LXFL 529 NSCLC = test system: LXFL 529 NSCLC
M14 melanoma = test system: M14 melanoma
M19-MEL melanoma = test system: M19-MEL melanoma
MALME-3M melanoma = test system: MALME-3M melanoma
MCF7 breast = test system: MCF7 breast
MDA-MB-231 breast = test system: MDA-MB-231 breast
MDA-MB-435 = test system: MDA-MB-435
MOLT-4 leukemia = test system: MOLT-4 leukemia
NCI-H226 lung = test system: NCI-H226 lung
NCI-H23 lung = test system: NCI-H23 lung
NCI-H460 lung = test system: NCI-H460 lung
NCI-H522 lung = test system: NCI-H522 lung
NCI/ADR-RES ovarian = test system: NCI/ADR-RES ovarian
OVCAR-3 ovarian = test system: OVCAR-3 ovarian
OVCAR-4 ovarian = test system: OVCAR-4 ovarian
OVCAR-5 ovarian = test system: OVCAR-5 ovarian
OVCAR-8 ovarian = test system: OVCAR-8 ovarian
PC-3 prostate = test system: PC-3 prostate
RPMI-8226 leukemia = test system: RPMI-8226 leukemia
RXF 393 renal = test system: RXF 393 renal
SK-MEL-2 melanoma = test system: SK-MEL-2 melanoma
SK-MEL-28 melanoma = test system: SK-MEL-28 melanoma
SK-MEL-5 melanoma = test system: SK-MEL-5 melanoma
SK-OV-3 ovarian = test system: SK-OV-3 ovarian
SN12C renal = test system: SN12C renal
SR leukemia = test system: SR leukemia
SW-620 colon = test system: SW-620 colon
T-47D breast = test system: T-47D breast
TK-10 renal = test system: TK-10 renal
UACC-257 melanoma = test system: UACC-257 melanoma
UACC-62 melanoma = test system: UACC-62 melanoma
UO-31 renal = test system: UO-31 renal

In the case of `CC[C@H](C)C(=O)O[C@H]1C[C@@H](C)C=C2C=C[C@H](C)[C@H](CC[C@@H]3C[C@@H](O)CC(=O)O3)[C@H]21`, the GI50 (786-0 renal) was 12.9 µM and 6.14 µM, the TGI (786-0 renal) was > 100 µM and 20.8 µM and > 30 µM and the GI50 (A498 renal) was 0.283 µM and 0.162 µM. The TGI (A498 renal) was 2.2 µM and 1.1 µM and 2.82 µM, the GI50 (A549 NSCLC) was 12.1 µM and the TGI (A549 NSCLC) was greater than 100 µM. The GI50 (ACHN renal) was 3.43 µM and 1.38 µM, the TGI (ACHN renal) was 29.8 µM and 6.03 µM and 23.4 µM and the GI50 (BT-549 breast) was 11.3 µM and 8.48 µM. The TGI (BT-549 breast) was > 100 µM and 25.2 µM, the GI50 (CAKI-1 renal) was 2.14 µM and 1.9 µM and the TGI (CAKI-1 renal) was 6.59 µM and 6.21 µM and 4.78 µM. The GI50 (CCRF-CEM leukemia) was 27.4 µM and 13.5 µM, the TGI (CCRF-CEM leukemia) was greater than 100 µM and the GI50 (COLO 205 colon) was 14.6 µM and 15.3 µM. For the same compound, the TGI (COLO 205 colon) was 51.3 µM and > 52.4 µM and 14.7 µM, the TGI (DLD-1 colon) was greater than 30 µM and the TGI (DMS 114 small cell lung) was greater than 30 µM. The TGI (DMS 273 small cell lung) was greater than 30 µM, the GI50 (DU-145 prostate) was 43.8 µM and 35.5 µM and the TGI (DU-145 prostate) was greater than 100 µM. For the same compound, the GI50 (EKVX NSCLC) was 4.32 µM and 6.61 µM, the TGI (EKVX NSCLC) was greater than 100 µM and the GI50 (HCC-2998 colon) was 26.3 µM and 25.1 µM. The TGI (HCC-2998 colon) was greater than 100 µM, the GI50 (HCT-116 colon) was 3.77 µM and 2.05 µM and the TGI (HCT-116 colon) was 24.5 µM and 16.2 µM. The GI50 (HCT-15 colon) was 5.46 µM and 1.47 µM, the TGI (HCT-15 colon) was greater than 100 µM and the GI50 (HL-60(TB) leukemia) was 15.9 µM and 19.9 µM. The TGI (HL-60(TB) leukemia) was 60.6 µM and 50.6 µM and > 30 µM, the TGI (HOP-18 NSCLC) was greater than 30 µM and the TGI (HOP-62 NSCLC) was greater than 100 µM. The GI50 (HOP-92 NSCLC) was 0.172 µM and 0.102 µM, the TGI (HOP-92 NSCLC) was 0.649 µM and 0.657 µM and 0.141 µM and the GI50 (HS 578T breast) was 5.08 µM and 5.36 µM. The TGI (HS 578T breast) was greater than 100 µM, the GI50 (HT29 colon) was 24.7 µM and 21.4 µM and the TGI (HT29 colon) was greater than 100 µM. The GI50 (IGROV1 ovarian) was 3.22 µM and 5.31 µM, the TGI (IGROV1 ovarian) was 23.2 µM and 29 µM and > 30 µM and the GI50 (K-562 leukemia) was 27.7 µM and 12.8 µM. The TGI (K-562 leukemia) was greater than 100 µM, the GI50 (KM12 colon) was 26.4 µM and the TGI (KM12 colon) was greater than 100 µM. The TGI (KM20L2 colon) was greater than 30 µM, the GI50 (LOX IMVI melanoma) was 0.932 µM and the TGI (LOX IMVI melanoma) was 21.3 µM and 6.82 µM and 7.71 µM. The TGI (LXFL 529 NSCLC) was greater than 30 µM, the GI50 (M14 melanoma) was 6.25 µM and 7.89 µM and the TGI (M14 melanoma) was greater than 100 µM. For the same compound, the TGI (M19-MEL melanoma) was greater than 30 µM, the GI50 (MALME-3M melanoma) was 14.1 µM and 15.2 µM and the TGI (MALME-3M melanoma) was > 100 µM and 31.6 µM and > 30 µM. For the same compound, the GI50 (MCF7 breast) was 32.1 µM and 14.9 µM, the TGI (MCF7 breast) was greater than 100 µM and the GI50 (MDA-MB-231 breast) was 0.495 µM and 0.31 µM. The TGI (MDA-MB-231 breast) was 3.5 µM and 1.51 µM, the GI50 (MDA-MB-435) was 20.2 µM and 15 µM and the TGI (MDA-MB-435) was greater than 100 µM. For the same compound, the GI50 (MOLT-4 leukemia) was 49.2 µM and 21.4 µM, the TGI (MOLT-4 leukemia) was > 100 µM and 53.4 µM and > 30 µM and the GI50 (NCI-H226 lung) was 10.1 µM and 6.22 µM. The TGI (NCI-H226 lung) was 54.7 µM and > 51 µM and > 30 µM, the GI50 (NCI-H23 lung) was 5.37 µM and 8.14 µM and the GI50 (NCI-H460 lung) was 11.4 µM and 5.59 µM. The TGI (NCI-H460 lung) was greater than 100 µM, the GI50 (NCI-H522 lung) was 1.98 µM and 1.66 µM and the TGI (NCI-H522 lung) was 8.53 µM and 22.3 µM. For the same compound, the GI50 (NCI/ADR-RES ovarian) was 2.63 µM and 2.95 µM, the TGI (NCI/ADR-RES ovarian) was greater than 100 µM and the GI50 (OVCAR-3 ovarian) was 16.2 µM and 25.2 µM. For the same compound, the TGI (OVCAR-3 ovarian) was greater than 100 µM, the GI50 (OVCAR-4 ovarian) was 10.9 µM and 17.6 µM and the TGI (OVCAR-4 ovarian) was 61.1 µM and > 55.5 µM and > 30 µM. The GI50 (OVCAR-5 ovarian) was 12.5 µM and 10.3 µM, the TGI (OVCAR-5 ovarian) was > 100 µM and 32.9 µM and > 30 µM and the GI50 (OVCAR-8 ovarian) was 2.96 µM and 6.79 µM. For the same compound, the TGI (OVCAR-8 ovarian) was greater than 100 µM, the GI50 (PC-3 prostate) was 0.967 µM and 1.76 µM and the TGI (PC-3 prostate) was greater than 100 µM. The GI50 (RPMI-8226 leukemia) was 8.88 µM and 8.95 µM, the TGI (RPMI-8226 leukemia) was > 100 µM and 53.7 µM and > 30 µM and the GI50 (RXF 393 renal) was 3.48 µM. For the same compound, the TGI (RXF 393 renal) was 31.8 µM and 13.8 µM and 17.3 µM, the GI50 (SK-MEL-2 melanoma) was 1.7 µM and 1.12 µM and the TGI (SK-MEL-2 melanoma) was 8.32 µM and 9.48 µM and > 30 µM. For the same compound, the GI50 (SK-MEL-28 melanoma) was 14.4 µM and 10.4 µM, the TGI (SK-MEL-28 melanoma) was > 100 µM and 27.1 µM and > 30 µM and the GI50 (SK-MEL-5 melanoma) was 10.7 µM and 2.97 µM. The TGI (SK-MEL-5 melanoma) was > 100 µM and 10.7 µM and 16.1 µM, the GI50 (SK-OV-3 ovarian) was 7.58 µM and 6.68 µM and the TGI (SK-OV-3 ovarian) was greater than 100 µM. The GI50 (SN12C renal) was 3.02 µM, the GI50 (SR leukemia) was 3 µM and 3.5 µM and the TGI (SR leukemia) was 17.3 µM and 25.4 µM and > 30 µM. For the same compound, the GI50 (SW-620 colon) was 10 µM and 10.1 µM, the TGI (SW-620 colon) was greater than 100 µM and the GI50 (T-47D breast) was 32.5 µM and 19.6 µM. The TGI (T-47D breast) was greater than 100 µM, the GI50 (TK-10 renal) was 26.3 µM and 19.3 µM and the TGI (TK-10 renal) was greater than 100 µM. The GI50 (UACC-257 melanoma) was 32.5 µM and > 46.2 µM, the TGI (UACC-257 melanoma) was greater than 100 µM and the GI50 (UACC-62 melanoma) was 2.83 µM and 2.59 µM. The TGI (UACC-62 melanoma) was 18.9 µM and 17.2 µM and > 30 µM, the GI50 (UO-31 renal) was 11 µM and 4.7 µM and the TGI (UO-31 renal) was 80.7 µM and 29.6 µM and 14.2 µM.
